The results in this text go back to article PMC6017976, “Enzyme Kinetics and Molecular Docking Studies on Cytochrome 2B6, 2C19, 2E1, and 3A4 Activities by Sauchinone” (Molecules : A Journal of Synthetic Chemistry and Natural …, 2018).

Assay type in all cases: in vitro ADME
One data set concerns the target T1, CYP2C9 (Homo sapiens, UniProt P11712).
T1 construct: pooled human liver microsomes from a mixed pool of 50 donors; tissue BD Gentest Co. 452156; host or cells: human liver microsomes, pool of 50 donors
As to the kind of experiment: Reversible inhibition (RI) of CYP2C9 activity in HLMs (cocktail probe assay). The settings on record: 100 μM tolbutamide, 30 min incubation.

Data set [1] deals with T2, CYP2D6 (Homo sapiens, UniProt P10635).
T2 construct: pooled human liver microsomes from a mixed pool of 50 donors; tissue BD Gentest Co. 452156; host or cells: human liver microsomes, pool of 50 donors
As to the kind of experiment: Reversible inhibition (RI) of CYP2D6 activity in HLMs (cocktail probe assay). The note with it: 5 μM dextromethorphan, 30 min incubation.

The target in data set [2] is T3, CYP3A4 (Homo sapiens, UniProt P08684).
T3 construct: pooled human liver microsomes from a mixed pool of 50 donors; tissue BD Gentest Co. 452156; host or cells: human liver microsomes, pool of 50 donors
As to the kind of experiment: Reversible inhibition (RI) of CYP3A4 activity in HLMs (cocktail probe assay). The note with it: testosterone hydroxylation, 50 μM testosterone, 30 min incubation.

In a further data set the target is T4, CYP2E1 (Homo sapiens, UniProt P05181).
T4 construct: pooled human liver microsomes from a mixed pool of 50 donors; tissue BD Gentest Co. 452156; host or cells: human liver microsomes, pool of 50 donors
As to the kind of experiment: Enzyme kinetic assay (Dixon plot, Ki) for CYP2E1 in HLMs. Here is the method:
(§1) Based on IC50 values, the Kis of sauchinone for CYP2B6, 2C19, 2E1, and 3A4 were determined. Different concentrations (20, 50, and 200 μM) of sauchinone were used. Other procedures were similar to those mentioned above regarding the reversible inhibitory effects of sauchinone. The inhibitory characteristics of sauchinone were initially estimated by nonlinear least squares regression analysis. Its Ki values were determined by Dixon plots.

The target of data set [3] is T3, CYP3A4. The data set is described as follows: Enzyme kinetic assay (Dixon plot, Ki) for CYP3A4 in HLMs. Here is the method: as §1
The target in the next data set is T5, CYP2B6 (Homo sapiens, UniProt P20813).
T5 construct: pooled human liver microsomes from a mixed pool of 50 donors; tissue BD Gentest Co. 452156; host or cells: human liver microsomes, pool of 50 donors
T5 sequence (P20813 1-491): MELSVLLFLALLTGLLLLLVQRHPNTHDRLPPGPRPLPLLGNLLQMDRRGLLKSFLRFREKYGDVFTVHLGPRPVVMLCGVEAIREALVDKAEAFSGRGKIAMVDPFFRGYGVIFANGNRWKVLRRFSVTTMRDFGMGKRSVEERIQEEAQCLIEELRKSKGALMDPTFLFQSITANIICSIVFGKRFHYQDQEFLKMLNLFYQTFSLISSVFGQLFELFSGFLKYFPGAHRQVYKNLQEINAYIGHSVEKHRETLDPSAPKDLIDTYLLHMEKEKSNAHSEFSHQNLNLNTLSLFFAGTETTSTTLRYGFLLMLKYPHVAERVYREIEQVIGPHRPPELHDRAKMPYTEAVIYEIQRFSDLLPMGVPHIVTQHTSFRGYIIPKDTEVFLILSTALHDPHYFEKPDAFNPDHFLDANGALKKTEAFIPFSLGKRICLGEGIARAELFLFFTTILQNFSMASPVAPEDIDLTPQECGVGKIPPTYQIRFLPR
As to the kind of experiment: Time-dependent inhibition (TDI) IC50 shift assay on CYP2B6 in HLMs. The note with it: for IC50: HLMs, 10 min incubation.

In a further data set the target is T6, CYP2C19 (Homo sapiens, UniProt P33261).
T6 construct: pooled human liver microsomes from a mixed pool of 50 donors; tissue BD Gentest Co. 452156; host or cells: human liver microsomes, pool of 50 donors
The data set is described as follows: Time-dependent inhibition (TDI) IC50 shift assay on CYP2C19 in HLMs. The note with it: for IC50: HLMs, 10 min incubation.

Data set [4] addresses T2, CYP2D6. As to the kind of experiment: Time-dependent inhibition (TDI) IC50 shift assay on CYP2D6 in HLMs.
The target of data set [5] is T3, CYP3A4. The data set is described as follows: Time-dependent inhibition (TDI) IC50 shift assay on CYP3A4 in HLMs. The note with it: for IC50: HLMs, 10 min incubation.
A further data set concerns the target T7, CYP2A6 (Homo sapiens, UniProt P11509).
T7 sequence (P11509 1-494): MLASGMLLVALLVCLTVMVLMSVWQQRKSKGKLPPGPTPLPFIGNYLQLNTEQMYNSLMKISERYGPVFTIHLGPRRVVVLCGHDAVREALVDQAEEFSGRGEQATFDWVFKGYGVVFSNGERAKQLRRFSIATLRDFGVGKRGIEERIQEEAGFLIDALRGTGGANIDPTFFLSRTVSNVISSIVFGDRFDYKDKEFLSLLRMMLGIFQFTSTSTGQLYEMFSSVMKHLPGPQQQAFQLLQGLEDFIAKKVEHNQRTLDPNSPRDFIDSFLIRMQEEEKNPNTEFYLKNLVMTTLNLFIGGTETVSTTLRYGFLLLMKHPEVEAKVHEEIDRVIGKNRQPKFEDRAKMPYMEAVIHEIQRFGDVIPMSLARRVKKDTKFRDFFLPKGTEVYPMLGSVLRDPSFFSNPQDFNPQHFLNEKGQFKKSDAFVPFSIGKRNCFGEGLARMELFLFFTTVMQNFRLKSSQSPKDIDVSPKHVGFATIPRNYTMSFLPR
As to the kind of experiment: Time-dependent inhibition (TDI) IC50 shift assay on CYP2A6 in HLMs. Details: pooled human liver microsomes from a mixed pool of 50 donors; tissue BD Gentest Co. 452156; host or cells: human liver microsomes, pool of 50 donors. The note with it: 10 min incubation.

Read-outs that look alike come from different tables or passages of the source. Some results are limits rather than exact numbers.

T3 sequence (P08684 whole entry): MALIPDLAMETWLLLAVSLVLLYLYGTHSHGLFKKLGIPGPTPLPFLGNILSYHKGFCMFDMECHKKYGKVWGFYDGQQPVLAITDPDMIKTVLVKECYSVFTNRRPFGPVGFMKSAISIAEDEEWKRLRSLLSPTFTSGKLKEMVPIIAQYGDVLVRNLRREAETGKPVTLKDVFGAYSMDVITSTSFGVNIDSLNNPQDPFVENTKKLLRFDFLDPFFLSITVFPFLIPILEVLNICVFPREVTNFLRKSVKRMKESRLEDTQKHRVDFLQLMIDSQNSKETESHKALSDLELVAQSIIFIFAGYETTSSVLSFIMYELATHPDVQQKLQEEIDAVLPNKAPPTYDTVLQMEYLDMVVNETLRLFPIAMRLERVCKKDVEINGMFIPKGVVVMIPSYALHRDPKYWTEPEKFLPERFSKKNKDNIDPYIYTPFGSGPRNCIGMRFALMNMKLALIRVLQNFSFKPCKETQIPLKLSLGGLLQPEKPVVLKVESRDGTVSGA
T2 sequence (P10635 whole entry): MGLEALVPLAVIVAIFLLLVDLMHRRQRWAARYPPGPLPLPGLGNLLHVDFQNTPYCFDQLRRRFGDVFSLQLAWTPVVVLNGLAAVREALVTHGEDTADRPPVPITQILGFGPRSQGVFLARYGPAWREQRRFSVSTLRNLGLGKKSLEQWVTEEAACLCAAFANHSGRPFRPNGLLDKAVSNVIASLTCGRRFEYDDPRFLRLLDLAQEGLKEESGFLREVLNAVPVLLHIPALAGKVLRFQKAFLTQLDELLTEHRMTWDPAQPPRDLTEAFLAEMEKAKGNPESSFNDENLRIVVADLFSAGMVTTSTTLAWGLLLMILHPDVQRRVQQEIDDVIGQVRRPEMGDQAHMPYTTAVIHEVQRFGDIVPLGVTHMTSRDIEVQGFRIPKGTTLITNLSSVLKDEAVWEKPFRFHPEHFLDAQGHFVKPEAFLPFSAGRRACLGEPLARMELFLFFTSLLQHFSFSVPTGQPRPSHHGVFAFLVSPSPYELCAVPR
T6 sequence (P33261 whole entry): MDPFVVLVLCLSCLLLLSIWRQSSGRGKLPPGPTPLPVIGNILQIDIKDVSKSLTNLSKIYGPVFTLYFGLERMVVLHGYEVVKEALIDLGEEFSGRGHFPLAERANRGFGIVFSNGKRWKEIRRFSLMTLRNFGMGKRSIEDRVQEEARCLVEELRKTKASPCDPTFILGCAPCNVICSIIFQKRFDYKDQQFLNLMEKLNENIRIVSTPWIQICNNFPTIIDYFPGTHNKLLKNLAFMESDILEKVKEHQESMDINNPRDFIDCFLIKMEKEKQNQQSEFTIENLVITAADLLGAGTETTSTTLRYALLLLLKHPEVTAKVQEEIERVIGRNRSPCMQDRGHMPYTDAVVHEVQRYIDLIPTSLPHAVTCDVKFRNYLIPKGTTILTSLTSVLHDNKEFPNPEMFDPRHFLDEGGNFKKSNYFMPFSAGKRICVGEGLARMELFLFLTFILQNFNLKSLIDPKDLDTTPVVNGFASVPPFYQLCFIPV
T4 sequence (P05181 whole entry): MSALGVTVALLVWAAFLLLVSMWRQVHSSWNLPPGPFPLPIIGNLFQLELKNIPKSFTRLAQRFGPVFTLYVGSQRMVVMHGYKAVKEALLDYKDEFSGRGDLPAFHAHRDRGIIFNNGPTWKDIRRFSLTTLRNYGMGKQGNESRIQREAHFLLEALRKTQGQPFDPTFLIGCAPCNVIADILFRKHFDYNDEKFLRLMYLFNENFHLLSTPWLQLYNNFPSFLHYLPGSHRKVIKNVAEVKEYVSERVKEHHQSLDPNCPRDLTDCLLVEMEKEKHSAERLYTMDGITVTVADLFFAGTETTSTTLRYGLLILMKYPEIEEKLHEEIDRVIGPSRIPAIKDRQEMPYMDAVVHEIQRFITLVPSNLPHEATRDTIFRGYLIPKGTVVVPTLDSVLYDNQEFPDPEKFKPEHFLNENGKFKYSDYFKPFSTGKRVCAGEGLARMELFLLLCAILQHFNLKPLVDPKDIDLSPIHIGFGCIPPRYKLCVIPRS
T1 sequence (P11712 whole entry): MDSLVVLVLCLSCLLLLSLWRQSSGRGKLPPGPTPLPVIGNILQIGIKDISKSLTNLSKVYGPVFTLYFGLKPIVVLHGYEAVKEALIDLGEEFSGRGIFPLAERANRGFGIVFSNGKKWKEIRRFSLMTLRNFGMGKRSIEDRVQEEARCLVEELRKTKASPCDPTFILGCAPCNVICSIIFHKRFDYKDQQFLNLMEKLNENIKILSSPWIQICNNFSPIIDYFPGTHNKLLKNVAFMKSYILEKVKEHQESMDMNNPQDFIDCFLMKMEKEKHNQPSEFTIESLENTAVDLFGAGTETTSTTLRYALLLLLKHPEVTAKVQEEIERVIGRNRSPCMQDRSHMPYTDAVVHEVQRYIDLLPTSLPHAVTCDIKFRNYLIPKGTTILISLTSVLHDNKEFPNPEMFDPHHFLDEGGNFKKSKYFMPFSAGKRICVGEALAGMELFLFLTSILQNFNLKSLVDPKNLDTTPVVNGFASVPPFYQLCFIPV

In general, IC50 refers to the concentration needed to halve the response being measured. Turning to `C[C@@H]1[C@H]2c3cc4c(cc3O[C@@]35OCOC3=CC(=O)[C@H](C[C@H]1C)[C@@H]25)OCO4` [Sauchinone], the IC50 at CYP2C9 was more than 300 µM; against CYP2D6 [1], more than 300 µM; on CYP3A4 [2], 0.207 ± 0.193 µM; on CYP2B6 (0 min pre-incubation with NADPH, read-out: IC50 on CYP2B6, 0 min inactivation incubation (TDI)), 36.4 ± 27 µM; on CYP2B6 (IC50 on CYP2B6, 30 min inactivation incubation (TDI), 30 min pre-incubation with NADPH), 3.93 ± 5.72 µM; at CYP2C19 (0 min pre-incubation with NADPH, read-out: IC50 on CYP2C19, 0 min inactivation incubation (TDI)), 28.5 ± 0.267 µM. The IC50 on CYP2C19 (IC50 on CYP2C19, 30 min inactivation incubation (TDI), 30 min pre-incubation with NADPH) was 19.4 ± 2.92 µM; on CYP2D6 [4] (0 min pre-incubation with NADPH, 10 min incubation, read-out: IC50 on CYP2D6, 0 min inactivation incubation (TDI)) it was more than 300 µM; on CYP2D6 [4] (read-out: IC50 on CYP2D6, 30 min inactivation incubation (TDI), 30 min pre-incubation with NADPH, 10 min incubation) it was more than 300 µM; on CYP3A4 [5] (0 min pre-incubation with NADPH, read-out: IC50 on CYP3A4, 0 min inactivation incubation (TDI)) it was 24.5 ± 51.3 µM; at CYP3A4 [5] (IC50 on CYP3A4, 30 min inactivation incubation (TDI), 30 min pre-incubation with NADPH) it was 1.14 ± 2.29 µM; at CYP2A6 (0 min pre-incubation with NADPH, read-out: IC50 on CYP2A6, 0 min inactivation incubation (TDI)), more than 300 µM. At CYP2A6 (IC50 on CYP2A6, 30 min inactivation incubation (TDI), 30 min pre-incubation with NADPH), the IC50 was more than 300 µM. Also, the Ki at CYP2E1 (sauchinone 20, 50, 200 μM, read-out: Apparent inhibition constant (Ki) for CYP2E1) came out at 41.7 µM; at CYP3A4 [3] (sauchinone 20, 50, 200 μM, read-out: Apparent inhibition constant (Ki) for CYP3A4), 6.84 µM. On CYP2E1 (visual inspection), the “Type of reversible inhibition of CYP2E1 (Dixon plot model)” value is “noncompetitive”. Besides, the “Type of reversible inhibition of CYP3A4 (Dixon plot model)” value at CYP3A4 [3] (visual inspection) is “noncompetitive”. The IC50 shift at 10 min at CYP2B6 (human, human liver microsomes, pH 7.4, probe bupropion (substrate cocktail set)) was determined as 9.28; at CYP3A4 [5] (human, human liver microsomes, pH 7.4, probe testosterone (substrate cocktail set)), 21.4. Further, the IC50 shift at CYP2C19 (human, human liver microsomes, pH 7.4) came out at 1.47.
